We go through 15 compounds from PubChem BioAssay (NCI).

Each structure is given as a SMILES string.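 Where inhibition never reached the appropriate level, the endpoint shown equals the highest concentration tested. Otherwise, values were interpolated linearly from a five-concentration, 48-hour dose response in 96-well plates. The concentration for 50% growth inhibition is given as GI50. TGI: concentration producing complete growth inhibition.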

Some test systems named below: T-47D breast; NCI/ADR-RES ovarian; U251 CNS; OVCAR-5 ovarian; MCF7 breast; SK-MEL-28 melanoma; HCC-2998 colon; MDA-N.
What all share (test): inhibition of tumour cell growth, NCI panel, 48 h

With `COc1ccc(-n2nc(C)c3c(Nc4ccc(NC(=O)Nc5ccc(Cl)c(C(F)(F)F)c5)cc4)ncnc32)cc1`, the GI50 in the assay with T-47D breast was 1.71 µM; in the assay with NCI/ADR-RES ovarian, 1.78 µM; with U251 CNS it was 1.15 µM; with OVCAR-5 ovarian, 1.83 µM; in the assay on MCF7 breast it was 2.12 µM; in the assay on SK-MEL-28 melanoma, 1.8 µM. Also, the GI50 in the assay on HCC-2998 colon was 2.22 µM. In addition, the TGI in the assay on T-47D breast turned out to be 5.41 µM; with NCI/ADR-RES ovarian it was 6.22 µM; with U251 CNS it was 3.08 µM; in the assay on OVCAR-5 ovarian, 4.71 µM; in the assay with MCF7 breast, 6.03 µM; in the assay with SK-MEL-28 melanoma it was 3.98 µM. The TGI in the assay on HCC-2998 colon came to 5.64 µM.
With `c1ccc(C2CC(=NC3CCCCC3)Nc3ccccc3N2)cc1` (centres undefined), the TGI in the assay with MDA-N, in the assay on NCI/ADR-RES ovarian, in the assay on U251 CNS, with OVCAR-5 ovarian and with SK-MEL-28 melanoma was over 100 µM throughout.
For `CN1N=C(c2ccncc2)OC1c1ccccc1F` (centres undefined), the TGI with T-47D breast, in the assay on MDA-N, in the assay with NCI/ADR-RES ovarian, in the assay with U251 CNS, in the assay on OVCAR-5 ovarian and in the assay with SK-MEL-28 melanoma was over 100 µM in each case. For the same compound, in the assay with HCC-2998 colon, the TGI was over 100 µM.
Consider `CC(=O)Oc1c(C)c(C)c2c(c1C)CCC(C)(CC(=O)OCCCCCCCCCCC[P+](c1ccccc1)(c1ccccc1)c1ccccc1)O2` (centres undefined), for which, in the assay on T-47D breast, the GI50 is 0.0727 µM and the TGI is 0.736 µM.
With `O=C1C=CC(=O)C(CNc2ccc(C(=O)OCc3ccccc3)cc2)=C1`, the TGI stood at 19.5 µM with MDA-N; 23.5 µM with NCI/ADR-RES ovarian; 19.9 µM with U251 CNS; 29.5 µM with OVCAR-5 ovarian; 18.5 µM with MCF7 breast; 17.4 µM with SK-MEL-28 melanoma. For the same compound, the TGI with HCC-2998 colon is 31.6 µM.
Regarding `O=[N+]([O-])c1cccc2c(N=Nc3ccc4ccccc4c3O)c(O)cc(S(=O)(=O)O)c12`, the TGI in the assay with MDA-N, with NCI/ADR-RES ovarian, with U251 CNS, in the assay with OVCAR-5 ovarian and in the assay with SK-MEL-28 melanoma was over 100 µM each time.
As for `CCOC(=O)c1c(SCCN2CCOCC2)n(-c2ccccc2)c(=S)n(-c2ccccc2)c1=O`, the TGI in the assay on T-47D breast was over 100 µM; in the assay on MDA-N, over 100 µM; with U251 CNS, over 100 µM; with OVCAR-5 ovarian it was over 100 µM; in the assay on MCF7 breast, 41.5 µM; in the assay on SK-MEL-28 melanoma it was 53.8 µM. The TGI in the assay with HCC-2998 colon was over 100 µM.
Regarding `O=S1(=O)c2cnccc2NC(=NCc2ccccc2)N1c1ccccc1`, the TGI in the assay on T-47D breast, in the assay on NCI/ADR-RES ovarian, in the assay with U251 CNS, in the assay on OVCAR-5 ovarian, in the assay on MCF7 breast and in the assay on SK-MEL-28 melanoma was over 100 µM in each case. Besides, the TGI with HCC-2998 colon is over 100 µM.
With `COc1ccc(C2c3cc4c(cc3OC(NCCO)C2C)OCO4)cc1` (centres undefined), the TGI was over 100 µM in the assay with T-47D breast; 63.7 µM with MDA-N; 54.9 µM in the assay with U251 CNS; over 100 µM in the assay on OVCAR-5 ovarian; 66.7 µM in the assay with MCF7 breast; 69.1 µM in the assay on SK-MEL-28 melanoma. This compound also gave a TGI with HCC-2998 colon of 66 µM.
For `COc1cc(/C=C2\CCC(C)/C(=C\c3cc(OC)c(OC)c(OC)c3)C2=O)cc(OC)c1OC` (centres undefined), the TGI with T-47D breast was over 100 µM; in the assay on MDA-N it was 16.1 µM; in the assay with U251 CNS, over 100 µM; in the assay on OVCAR-5 ovarian, 14.2 µM; with MCF7 breast, over 100 µM; in the assay on SK-MEL-28 melanoma, 25.2 µM.
As for `CC(C)C1=C(O)C2=C(C(=O)C1=O)C1(C)CCCC(C)(C)C1C(O)C2OC=O` (centres undefined), the TGI in the assay with T-47D breast worked out at 27.9 µM; in the assay with MDA-N, 28.1 µM; with U251 CNS, 17.1 µM; in the assay with OVCAR-5 ovarian it was 30.9 µM; in the assay on MCF7 breast, 27.7 µM; in the assay with SK-MEL-28 melanoma, 13.1 µM. In addition, the TGI with HCC-2998 colon was 19.2 µM.
As to `C(=C\c1ccccc1)/COc1ccccc1C(N1CCOCC1)n1nc2ccccc2n1` (centres undefined), the TGI stood at 43.8 µM with T-47D breast; 22.6 µM in the assay on NCI/ADR-RES ovarian; 17.6 µM with U251 CNS; 44.9 µM in the assay on OVCAR-5 ovarian; 6.57 µM with MCF7 breast; 32.7 µM with SK-MEL-28 melanoma. In the assay on HCC-2998 colon, the TGI was determined as 34.8 µM.
As to `CN(C)c1cccc2c1C(=O)C=CC21c2ccc(N(C)C)c3c(N(C)C)ccc(c23)C(c2ccccc2)C1c1ccccc1` (centres undefined), the TGI in the assay on MDA-N was 37 µM; with NCI/ADR-RES ovarian, 58.9 µM; with U251 CNS, 25.8 µM; with OVCAR-5 ovarian, 81.7 µM; in the assay on MCF7 breast, 36.9 µM; with SK-MEL-28 melanoma, 37.5 µM. Besides, in the assay with HCC-2998 colon, the TGI amounted to 45.6 µM.
`O=C1C2=Nc3ccccc3C(O)(C(=O)O)N2c2ccccc21` (centres undefined): the TGI in the assay on NCI/ADR-RES ovarian is over 100 µM; with U251 CNS, over 100 µM; in the assay with OVCAR-5 ovarian, 49.4 µM; in the assay on MCF7 breast it was 46.8 µM; with SK-MEL-28 melanoma, over 100 µM; in the assay with HCC-2998 colon, over 100 µM.
For `O=[N+]([O-])c1ccc2c(c1)c(N=NC(=S)Nc1ccc(Cl)cc1)c(O)n2CN1CCOCC1`, the TGI with T-47D breast worked out at 20.8 µM; in the assay on NCI/ADR-RES ovarian it was 5.9 µM; with U251 CNS, 20.1 µM; in the assay on MCF7 breast, 18.8 µM; in the assay on SK-MEL-28 melanoma, 26.6 µM.
